Assay results reported in patent US7268128B2, “1,3,5-trisubstituted-5-phenyl and 5-pyridyl pyrazolopyrimidinone derivatives having PDE7 inhibiting action” (Ausbio Pharma Co., Ltd., priority 2001, dated 2007).

Molecular target: T1, PDE7 (type VII phosphodiesterase) (Homo sapiens, UniProt Q13946)
T1 construct: endogenous in cells; host or cells: MOLT-4 (ATCC CRL-1582), soluble fraction, HiTrapQ anion-exchange fraction
Assay: PDE7 inhibiting activity (3H-cAMP hydrolysis, active fraction from MOLT-4 cells)
Format: biochemical
Settings: PDE7 fraction from MOLT-4 cells, 0.064 μM cAMP, 10 μM rolipram present, 2 hours at 25° C.; read-out: IC50 values for phosphodiesterase inhibiting activities (PDE7)
Procedure: To evaluate the compounds of the present invention for the ability to suppress PDE7 (type VII phosphodiesterase), the method of Biochemical Pharmacol. 48(6), 1219-1223 (1994) was partially modified to perform the following assay:
1) PDE7 (type VII phosphodiesterase) active fraction was obtained. That is, human acute lymphoblastoid lymphoma T cell strain MOLT-4 (purchasable from ATCC under ATCC No. CRL-1582) was cultured in RPMI1640 medium containing 10% fetal bovine serum to obtain 5×10^8 MOLT4 cells. The cells were harvested by centrifugation, and suspended in 10 ml of buffer A (25 mM tris-HCl, 5 mM 2-mercaptoethanol, 2 mM benzamidine, 2 mM EDTA, 0.1 mM 4-(2-aminoethyl)benzenesulfonyl hydrochloride, pH 7=7.5). The cells were homogenized in a Polytoron homogenizer, and centrifuged (4° C., 25,000 G, 10 min). The supernatant was further ultracentrifuged (4° C., 100,000 G, 60 min), and the resulting supernatant was filtered through a 0.2 μm filter to obtain a soluble fraction.
2) HiTrapQ column (5 ml×2) equilibrated with buffer A was charged with the resulting soluble fraction. Phosphodiesterase was eluted using 300 ml of buffer A containing a linear gradient solution of 0 to 0.8M sodium chloride to collect sixty 5 ml fractions. Each fraction was tested for cAMP metabolizing phosphodiesterase activity.
3) The test compounds at desired concentrations were each reacted for 2 hours at 25° C. in a reactant mixture containing 20 mM tris-HCl (pH 7.5), 1 mM MgCl2, 100 μM EDTA, 330 μg/ml bovine serum albumin, 4 μg/ml 5′-nucleotidase, 0.1 μCi^3H-cAMP (0.064 μM cAMP), 10 μM rolipram, and the type VII phosphodiesterase stored solution. QAE-Sephadex suspended in 10 mM HEPES-Na (pH 7.0) was added to the reaction mixture, and the mixture was allowed to stand for 5 minutes. Then, the supernatant was recovered, and QAE-Sephadex was further added, followed by allowing the mixture to stand for 5 minutes. Then, the resulting supernatant was measure for radioactivity.
4) IC50, as the concentration of the test compound that inhibited 50% of the metabolic activity of PDE7, was calculated for each of the compounds.

T1 sequence (Q13946 whole entry): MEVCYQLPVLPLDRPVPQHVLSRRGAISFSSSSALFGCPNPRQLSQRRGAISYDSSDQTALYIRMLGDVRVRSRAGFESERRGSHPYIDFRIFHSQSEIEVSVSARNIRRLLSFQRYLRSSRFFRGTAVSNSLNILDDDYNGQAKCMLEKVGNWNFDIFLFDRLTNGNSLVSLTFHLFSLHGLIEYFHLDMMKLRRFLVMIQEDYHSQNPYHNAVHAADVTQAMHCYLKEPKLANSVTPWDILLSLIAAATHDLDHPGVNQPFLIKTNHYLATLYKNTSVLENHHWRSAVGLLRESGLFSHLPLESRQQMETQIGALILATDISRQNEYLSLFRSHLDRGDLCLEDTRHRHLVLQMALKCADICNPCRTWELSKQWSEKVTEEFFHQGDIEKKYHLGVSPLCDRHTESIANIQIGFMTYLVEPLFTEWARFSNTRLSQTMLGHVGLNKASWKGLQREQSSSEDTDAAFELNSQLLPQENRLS

IC50, ≤ 1000 nM:
COc1cc(NC(C)=O)ccc1-c1nc2c(c(C3CCCCC3)nn2C)c(=O)[nH]1 [Example 45, N-[4-(3-cyclohexyl-1-methyl-4-oxo-4,5-dihydro-1H-pyrazolo[3,4-d]pyrimidin-6-yl)-3-methoxyphenyl]acetamide]
COc1cc(S(=O)(=O)N2CCN(C)CC2)ccc1-c1nc2c(c(C3CCCCC3)nn2C)c(=O)[nH]1 [Example 50, 3-Cyclohexyl-6-{2-methoxy-4-[(4-methyl-1-piperazinyl)sulfonyl]phenyl}-1-methyl-1,5-dihydro-4H-pyrazolo[3,4-d]pyrimidin-4-one monochloride]
COc1cc(S(=O)(=O)N2CCC(C(=O)O)CC2)ccc1-c1nc2c(c(C3CCCCC3)nn2C)c(=O)[nH]1 [Example 54, 1-{[4-(3-Cyclohexyl-1-methyl-4-oxo-4,5-dihydro-1H-pyrazolo[3,4-d]pyrimidin-6-yl)-3-methoxyphenyl]sulfonyl}-4-piperidinecarboxylic acid]
COc1cc(S(=O)(=O)NCCN(C)C)ccc1-c1nc2c(c(C3CCCCC3)nn2C)c(=O)[nH]1 [Example 56, 4-(3-Cyclohexyl-1-methyl-4-oxo-4,5-dihydro-1H-pyrazolo[3,4-d]pyrimidin-6-yl)-N-[2-(dimethylamino)ethyl]-3-methoxybenzenesulfonamide monochloride]
COCCNS(=O)(=O)c1ccc(-c2nc3c(c(C4CCCCC4)nn3C)c(=O)[nH]2)c(OC)c1 [Example 57, 4-(3-Cyclohexyl-1-methyl-4-oxo-4,5-dihydro-1H-pyrazolo[3,4-d]pyrimidin-6-yl)-3-methoxy-N-(2-methoxyethyl) benzenesulfonamide]
COc1cc(S(=O)(=O)NCCO)ccc1-c1nc2c(c(C3CCCCC3)nn2C)c(=O)[nH]1 [Example 58, 4-(3-Cyclohexyl-1-methyl-4-oxo-4,5-dihydro-1H-pyrazolo[3,4-d]pyrimidin-6-yl)-N-(2-hydroxyethyl)-3-methoxybenzenesulfonamide]
COc1cc(N2CCOCC2)ccc1-c1nc2c(c(C3CCCCC3)nn2C)c(=O)[nH]1 [Example 59, 3-Cyclohexyl-6-[2-methoxy-4-(4-morpholinyl)phenyl]-1-methyl-1,5-dihydro-4H-pyrazolo[3,4-d]pyrimidin-4-one]
COc1cc(N2CCN(C)CC2)ccc1-c1nc2c(c(C3CCCCCC3)nn2C)c(=O)[nH]1 [Example 64, 3-Cycloheptyl-6-[2-methoxy-4-(4-methyl-1-piperazinyl)phenyl]-1-methyl-1,5-dihydro-4H-pyrazolo[3,4-d]pyrimidin-4-one]
COc1cc(C(=O)O)ccc1-c1nc2c(c(C3CCCCC3)nn2C)c(=O)[nH]1 [Example 65, 4-(3-Cyclohexyl-1-methyl-4-oxo-4,5-dihydro-1H-pyrazolo[3,4-d]pyrimidin-6-yl)-3-methoxybenzoic acid]
COc1cc(C(=O)N2CCN(C)CC2)ccc1-c1nc2c(c(C3CCCCC3)nn2C)c(=O)[nH]1 [Example 67, 3-Cyclohexyl-6-{2-methoxy-4-[(4-methyl-1-piperazinyl)carbonyl]phenyl}-1-methyl-1,5-dihydro-4H-pyrazolo[3,4-d]pyrimidin-4-one monomethanesulfonate]
COc1cc(C(=O)N2CCOCC2)ccc1-c1nc2c(c(C3CCCCC3)nn2C)c(=O)[nH]1 [Example 68, 3-Cyclohexyl-6-[2-methoxy-4-(4-morpholinylcarbonyl)phenyl]-1-methyl-1,5-dihydro-4H-pyrazolo[3,4-d]pyrimidin-4-one]
COc1cc(C(=O)N2CCC(O)CC2)ccc1-c1nc2c(c(C3CCCCC3)nn2C)c(=O)[nH]1 [Example 69, 3-Cyclohexyl-6-{4-[(4-hydroxy-1-piperidinyl)carbonyl]-2-methoxyphenyl}-1-methyl-1,5-dihydro-4H-pyrazolo[3,4-d]pyrimidin-4-one]
COc1cc(C(=O)N2CCC(OC)CC2)ccc1-c1nc2c(c(C3CCCCC3)nn2C)c(=O)[nH]1 [Example 70, 3-Cyclohexyl-6-{2-methoxy-4-[(4-methoxy-1-piperidinyl)carbonyl]phenyl}-1-methyl-1,5-dihydro-4H-pyrazolo[3,4-d]pyrimidin-4-one]
COc1cc(C(=O)NCC(=O)O)ccc1-c1nc2c(c(C3CCCCC3)nn2C)c(=O)[nH]1 [Example 72, {[4-(3-Cyclohexyl-1-methyl-4-oxo-4,5-dihydro-1H-pyrazolo[3,4-d]pyrimidin-6-yl)-3-methoxybenzoyl]amino}acetic acid]
COc1ccc(F)cc1-c1nc2c(c(C3CCCCC3)nn2C)c(=O)[nH]1 [Example 74, 3-Cyclohexyl-6-(5-fluoro-2-methoxyphenyl)-1-methyl-1,5-dihydro-4H-pyrazolo[3,4-d]pyrimidin-4-one]

IC50, ≤ 10 nM:
COCC(=O)Nc1ccc(-c2nc3c(c(C4CCCCC4)nn3C)c(=O)[nH]2)c(OC)c1 [Example 46, N-[4-(3-cyclohexyl-1-methyl-4-oxo-4,5-dihydro-1H-pyrazolo[3,4-d]pyrimidin-6-yl)-3-methoxyphenyl]-2-methoxyacetamide]
CNc1ccc(-c2nc3c(c(C4CCCCC4)nn3C)c(=O)[nH]2)c(OC)c1 [Example 47, 3-Cyclohexyl-6-[2-methoxy-4-(methylamino)phenyl]-1-methyl-1,5-dihydro-4H-pyrazolo[3,4-d]pyrimidin-4-one]
COc1cc(S(=O)(=O)N2CCOCC2)ccc1-c1nc2c(c(C3CCCCC3)nn2C)c(=O)[nH]1 [Example 51, 3-Cyclohexyl-6-[2-methoxy-4-(4-morpholinylsulfonyl)phenyl]-1-methyl-1,5-dihydro-4H-pyrazolo[3,4-d]pyrimidin-4-one]
COc1cc(S(=O)(=O)N2CCC(O)CC2)ccc1-c1nc2c(c(C3CCCCC3)nn2C)c(=O)[nH]1 [Example 52, 3-Cyclohexyl-6-{4-[(4-hydroxy-1-piperidinyl)sulfonyl]-2-methoxyphenyl}-1-methyl-1,5-dihydro-4H-pyrazolo[3,4-d]pyrimidin-4-one]
COc1cc(N2CCNCC2)ccc1-c1nc2c(c(C3CCCCC3)nn2C)c(=O)[nH]1 [Example 60, 3-Cyclohexyl-6-[2-methoxy-4-(1-piperazinyl)phenyl]-1-methyl-1,5-dihydro-4H-pyrazolo[3,4-d]pyrimidin-4-one]
COc1cc(N2CCC(OC)CC2)ccc1-c1nc2c(c(C3CCCCC3)nn2C)c(=O)[nH]1 [Example 62, 3-Cyclohexyl-6-[2-methoxy-4-(4-methoxy-1-piperidinyl)phenyl]-1-methyl-1,5-dihydro-4H-pyrazolo[3,4-d]pyrimidin-4-one monomethanesulfonate]
COCCN(C)c1ccc(-c2nc3c(c(C4CCCCC4)nn3C)c(=O)[nH]2)c(OC)c1 [Example 73, 3-Cyclohexyl-6-{2-methoxy-4-[(2-methoxyethyl)(methyl)amino]phenyl}-1-methyl-1,5-dihydro-4H-pyrazolo[3,4-d]pyrimidin-4-one]
COc1cc(N2CCC(C(=O)O)CC2)ccc1-c1nc2c(c(C3CCCCC3)nn2C)c(=O)[nH]1 [Example 76]
COc1cc(N2CCNCC2)ccc1-c1nc2c(c(C3CCCCCC3)nn2C)c(=O)[nH]1 [Example 78, 3-Cycloheptyl-6-[2-methoxy-4-(1-piperazinyl)phenyl]-1-methyl-1,5-dihydro-4H-pyrazolo[3,4-d]pyrimidin-4-one monomethanesulfonate]
COc1cc(N2CCNCC2)c(F)cc1-c1nc2c(c(C3CCCCC3)nn2C)c(=O)[nH]1 [Example 81, monomethanesulfonate]
COc1cc(N2CCN(C)CC2)c(F)cc1-c1nc2c(c(C3CCCCC3)nn2C)c(=O)[nH]1 [Example 82, 3-Cyclohexyl-6-[5-fluoro-2-methoxy-4-(4-methyl-1-piperazinyl)phenyl]-1-methyl-1,5-dihydro-4H-pyrazolo[3,4-d]pyrimidin-4-one]
CNCCN(C)c1ccc(-c2nc3c(c(C4CCCCC4)nn3C)c(=O)[nH]2)c(OC)c1 [Example 84, 3-Cyclohexyl-6-(2-methoxy-4-{methyl[2-(methylamino)ethyl]amino}phenyl)-1-methyl-1,5-dihydro-4H-pyrazolo[3,4-d]pyrimidin-4-one monomethanesulfonate]
CCOc1cc(N2CCN(C)CC2)ccc1-c1nc2c(c(C3CCCCC3)nn2C)c(=O)[nH]1 [Example 87, 3-Cyclohexyl-6-[2-ethoxy-4-(4-methyl-1-piperazinyl)phenyl]-1-methyl-1,5-dihydro-4H-pyrazolo[3,4-d]pyrimidin-4-one monomethanesulfonate]
